Experimental data: publication PMC4414724 (Chemico-biological interactions, 2015)
Like-named read-outs stand apart in the source and are kept apart here.

Columns and labels:
[1] = molecular target: rat liver alcohol dehydrogenase (Rattus norvegicus, UniProt P06757); assay: Oxidation of alcohols by isolated rat liver alcohol dehydrogenase
[2] = molecular target: horse liver ADH1E (Equus caballus, UniProt P00327); assay: Reactions of horse liver ADH1E with 1,5-pentanediol and 5-hydroxypentanal; assay type: biochemical; conditions: for concentration formed in dismutation reaction: 5 mM 5-hydroxypentanal, 1 mM NAD+, 0.01 mg/mL ADH, at 12 h, GC
[3] = test system: methanol metabolism; conditions: cited from earlier work
[4] = test system: ethanol elimination; conditions: cited from earlier work
[5] = test system: cytochrome P-450; conditions: read-out: in vitro Ki; cited from earlier work
[6] = molecular target: rat liver ADH; conditions: read-out: in vitro Ki (competitive against alcohol); cited from earlier work
[7] = data for zero order elimination, rats without inhibitors
[8] = calculated from kinetic constants with Michaelis-Menten equation for 5 mM alcohol
[9] = from inhibition by 1 mmole/kg 4-methylpyrazole
[10] = observed rate without inhibitors minus the rate with 1 mmole/kg 4-methylpyrazole
[11] = primary alcohols and diols, doses of 5–20 mmole/kg
[12] = 83 mM potassium phosphate, 40 mM KCl, pH 7.3, 37 °C, 0.5 mM NAD+
[13] = rats fasted 24 h, dose mmole/kg: 2-propanol 17, 2-propanol-d7 15
[14] = secondary alcohols, doses of 5–10 mmole/kg

Sequence of horse liver ADH1E (P00327 2-375 limits assumed): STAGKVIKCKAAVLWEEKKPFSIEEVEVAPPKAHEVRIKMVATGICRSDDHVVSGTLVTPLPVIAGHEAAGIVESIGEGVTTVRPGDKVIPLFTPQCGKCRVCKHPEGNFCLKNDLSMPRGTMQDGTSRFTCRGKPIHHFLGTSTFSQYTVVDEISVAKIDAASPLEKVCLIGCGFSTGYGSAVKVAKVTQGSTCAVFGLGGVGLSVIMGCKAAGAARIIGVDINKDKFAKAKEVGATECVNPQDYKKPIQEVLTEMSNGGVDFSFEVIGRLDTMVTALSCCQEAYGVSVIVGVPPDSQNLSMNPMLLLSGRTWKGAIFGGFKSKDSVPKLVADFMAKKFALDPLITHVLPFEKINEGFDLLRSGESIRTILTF
Sequence of rat liver alcohol dehydrogenase (P06757 2-376 limits assumed): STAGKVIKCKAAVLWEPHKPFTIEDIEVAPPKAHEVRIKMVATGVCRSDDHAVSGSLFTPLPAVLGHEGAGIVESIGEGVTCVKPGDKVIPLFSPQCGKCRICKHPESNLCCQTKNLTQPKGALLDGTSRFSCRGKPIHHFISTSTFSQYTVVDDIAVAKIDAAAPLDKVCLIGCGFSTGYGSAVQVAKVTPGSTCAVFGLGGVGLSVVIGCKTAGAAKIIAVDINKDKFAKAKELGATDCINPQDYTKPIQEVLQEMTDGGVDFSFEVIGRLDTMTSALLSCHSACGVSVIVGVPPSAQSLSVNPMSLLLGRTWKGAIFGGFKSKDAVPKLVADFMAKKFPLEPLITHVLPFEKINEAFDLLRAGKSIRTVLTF

In the case of `OCCO` [1,2-Ethanediol, 1,2-ethanediol], the “r (fraction of body weight accessible to the alcohol)” value (rat, in vivo, ip) is reported as 0.72 ± 0.08 mL/g, the “V rel (Vmax relative to ethanol as substrate)” value ([1]; pH 7.3) is reported as 0.99 ± 0.25 and the Vrel/K ([1]; pH 7.3) is reported as 0.0013.

In the case of `CC(O)CCO` (stereo not drawn) [1,3-Butanediol, 1,3-butanediol], the “in vivo rate of elimination” value [7] is reported as 5.0 ± 0.3 mmol/kg/h, the “Rate due to ADH” value (male, rat, in vivo) is reported as 4.1 and the “r (fraction of body weight accessible to the alcohol)” value (male, rat, in vivo, ip) is reported as 0.82 ± 0.05 mL/g. For the same compound, the “%ADH (estimated percentage of elimination due to ADH)” value (rat, in vivo) was 82% and the “in vitro v rel” value [1, 8] was 0.44.

In the case of `OCCCO` [1,3-Propanediol, 1,3-propanediol], the “in vivo rate of elimination” value [7] is reported as 2.7 ± 0.8 mmol/kg/h, the “%ADH (estimated percentage of elimination due to ADH)” value [9] is reported as 63% and the “Rate due to ADH” value [10] is reported as 1.7. The “kinetics of elimination in rats (order)” value [11] was “zero-order kinetics”, the Km [1, 12] was 24 ± 2 mM and the “V rel (Vmax relative to ethanol as substrate)” value [1, 12] was 0.75 ± 0.04. The “in vitro v rel” value [1, 8] was 0.13 and the Vrel/K ([1]; pH 7.3, 37 °C, 0.5 mM NAD+) was 0.031.

In the case of `OCCCCO` [1,4-Butanediol, 1,4-butanediol], the “Rate due to ADH” value (male, rat, in vivo) is reported as 5.8, the “in vivo rate of elimination” value (male, rat, in vivo) is reported as 6.7 ± 0.1 mmol/kg/h and the “r (fraction of body weight accessible to the alcohol)” value (male, rat, in vivo, ip) is reported as 1.3 ± 0.2 mL/g. The “%ADH (estimated percentage of elimination due to ADH)” value (rat, in vivo) was 86%, the “kinetics of elimination in rats (order)” value (rat, in vivo) was “zero-order kinetics” and the “in vitro v rel” value [1] was 0.52. The “V rel (Vmax relative to ethanol as substrate)” value ([1]; pH 7.3) was 1.5 ± 0.3 and the Vrel/K ([1]; pH 7.3) was 0.16.

For `OCCCCCO` [1,5-Pentanediol, 1,5-pentanediol], the “kinetics of elimination in rats (order)” value [11] was “zero-order kinetics”, the “Vmax relative to the activity on ethanol” value [2] was 1.1 and the “concentration formed in dismutation reaction” value [2] was ~ 2 mM. For the same compound, the “V rel (Vmax relative to ethanol as substrate)” value [1, 12] was 3.6 ± 1.3 and the Vrel/K ([1]; pH 7.3, 37 °C, 0.5 mM NAD+) was 1.0.

For `CCCCO` [1-Butanol, 1-butanol], the “%ADH (estimated percentage of elimination due to ADH)” value [9] was 56%, the “in vivo rate of elimination” value (rat, in vivo) was 3.2 ± 0.4 mmol/kg/h and the Km [1, 12] was 0.14 ± 0.03 mM. The “V rel (Vmax relative to ethanol as substrate)” value [1, 12] was 1.3 ± 0.1, the “in vitro v rel” value [1, 8] was 1.3 and the Vrel/K ([1]; pH 7.3, 37 °C, 0.5 mM NAD+) was 9.3.

In the case of `CCCO` [1-Propanol, 1-propanol], the “%ADH (estimated percentage of elimination due to ADH)” value [9] is reported as 81%, the “Rate due to ADH” value (rat, in vivo) is reported as 4.3 and the “in vivo rate of elimination” value (rat, in vivo) is reported as 5.3 ± 0.5 mmol/kg/h. The “kinetics of elimination in rats (order)” value (rat, in vivo) was “zero-order kinetics”, the “r (fraction of body weight accessible to the alcohol)” value (rat, in vivo, ip) was 0.67 ± 0.09 mL/g and the Km [1, 12] was 0.22 ± 0.03 mM. For the same compound, the “V rel (Vmax relative to ethanol as substrate)” value [1, 12] was 0.95 ± 0.07, the “in vitro v rel” value [1, 8] was 0.91 and the Vrel/K ([1]; pH 7.3, 37 °C, 0.5 mM NAD+) was 4.3.

For `CCC(C)O` (stereo not drawn) [2-Butanol, 2-butanol], the “%ADH (estimated percentage of elimination due to ADH)” value [9] was 68%, the “Rate due to ADH” value (rat, in vivo) was 1.7 and the “in vivo rate of elimination” value (rat, in vivo) was 2.5 ± 0.4 mmol/kg/h. The “kinetics of elimination in rats (order)” value (rat, in vivo) was “first order kinetics”, the “10^4 k1 (first order, alcohol to ketone)” value (rat, in vivo, ip) was 112 ± 17 min^−1 and the “10^4 k2 (first order, elimination of ketone)” value (rat, in vivo, ip) was 37 ± 4 min^−1. The “k2 (zero order, elimination of ketone)” value (rat, in vivo, ip) was 1.1 ± 0.2 mmol/kg/h, the r (rat, in vivo, ip) was 0.74 ± 0.08 mL/g and the Km [1, 12] was 12 ± 6 mM. The “V rel (Vmax relative to ethanol as substrate)” value [1, 12] was 0.48 ± 0.03, the “in vitro v rel” value [1, 8] was 0.14 and the Vrel/K ([1]; pH 7.3, 37 °C, 0.5 mM NAD+) was 0.04.

With `CCC(C)=O` [2-Butanone] the “10^4 k2 (first order, elimination of ketone)” value (rat, in vivo, ip) was 31 ± 2 min^−1, the “k2 (zero order, elimination of ketone)” value (rat, in vivo, ip) was 1.3 mmol/kg/h and the r (rat, in vivo, ip) was 0.81 mL/g.

For `CC(C)CO` [2-Methyl-1-propanol, 2-methyl-1-propanol], the “%ADH (estimated percentage of elimination due to ADH)” value [9] was 66%, the “in vivo rate of elimination” value (rat, in vivo) was 3.8 ± 0.5 mmol/kg/h and the Km [1, 12] was 0.19 ± 0.04 mM. For the same compound, the “V rel (Vmax relative to ethanol as substrate)” value [1, 12] was 0.80 ± 0.04, the “in vitro v rel” value [1, 8] was 0.77 and the Vrel/K ([1]; pH 7.3, 37 °C, 0.5 mM NAD+) was 4.2.

In the case of `CC(C)O` [2-Propanol, 2-propanol], the “inhibition of the rate of elimination” value (by 1 mmole/kg of 4-methylpyrazole) is reported as 55%, the “k2 (zero order, elimination of ketone)” value (fed rats, 10 mmole/kg isobutyramide (IBA), dose 10 mmole/kg) is reported as 0.44 mmol/kg/h and the “%ADH (estimated percentage of elimination due to ADH)” value [9] is reported as 55%. The “10^4 k1 (first order, alcohol to ketone)” value (rat, in vivo) was 42 ± 4 min^−1, the “10^4 k2 (first order, elimination of ketone)” value (rat, in vivo) was 14.3 ± 0.6 min^−1 and the Km (rat, in vivo) was 58 ± 20 mM. The “Vmax, Michaelis-Menten fit of elimination in vivo” value (rat, in vivo) was 0.38 ± 0.10 mM/min, the r (rat, in vivo) was 0.75 ± 0.01 mL/g and the “k2 (zero order, elimination of ketone)” value [13] was 0.64 ± 0.02 mmol/kg/h. The “V rel (Vmax relative to ethanol as substrate)” value [1, 12] was 0.40 ± 0.02, the Km ([1]; 83 mM potassium phosphate, 40 mM KCl, pH 7.3, 37 °C, 0.5 mM NAD+, listed as 2-propanol) was 36 ± 7 mM and the “in vitro v rel” value [1, 8] was 0.049. It also gave a Vrel/K ([1]; pH 7.3, 37 °C, 0.5 mM NAD+) of 0.011.

With `CC(C)O` [2-Propanol-d7, 2-propanol-d7] the Km ([1]; 83 mM potassium phosphate, 40 mM KCl, pH 7.3, 37 °C, 0.5 mM NAD+, listed as 2-propanol-d7) was 83 ± 15 mM.

For `[2H]C([2H])([2H])C([2H])(O)C([2H])([2H])[2H]` [2-Propanol-d7, 2-propanol-d7], the “10^4 k1 (first order, alcohol to ketone)” value (rat, in vivo) was 18 ± 2 min^−1, the “10^4 k2 (first order, elimination of ketone)” value (rat, in vivo) was 13 ± 2 min^−1 and the “k2 (zero order, elimination of ketone)” value (rat, in vivo) was 0.44 ± 0.06 mmol/kg/h. The “10^4 k1 (first order, alcohol to ketone)” value (rat, in vivo, ip) was 25 ± 2 min^−1, the “10^4 k2 (first order, elimination of ketone)” value (rat, in vivo, ip) was 19 ± 4 min^−1 and the “k2 (zero order, elimination of ketone)” value (rat, in vivo, ip) was 0.59 ± 0.08 mmol/kg/h. For the same compound, the r [13] was 0.70 ± 0.03 mL/g, the “kinetics of elimination in rats (order)” value [14] was “first order kinetics” and the “V rel (Vmax relative to ethanol as substrate)” value [1, 12] was 0.20 ± 0.02. For the same compound, the “in vitro v rel” value [1, 8] was 0.011 and the Vrel/K ([1]; pH 7.3, 37 °C, 0.5 mM NAD+) was 0.0024.

For `Nc1nc[nH]n1` [3-Aminotriazole, 3-Amino-1,2,4-triazole], the “inhibition of methanol metabolism” value [3] is listed as ~ 35% and the “inhibition of ethanol metabolism in rats” value [4] is listed as ~ 10%.

With `CC(C)CCO` [3-Methyl-1-butanol, 3-methyl-1-butanol] the “%ADH (estimated percentage of elimination due to ADH)” value [9] was 61%, the “in vivo rate of elimination” value (male, Sprague-Dawley, rat, in vivo) was 4.6 ± 0.8 mmol/kg/h and the “V rel (Vmax relative to ethanol as substrate)” value [1, 12] was 0.54 ± 0.02. The “in vitro v rel” value [1, 8] was 0.53 and the Vrel/K ([1]; pH 7.3) was 13.

With `CCC(O)CC` [3-Pentanol, 3-pentanol] the “%ADH (estimated percentage of elimination due to ADH)” value [9] was 90%, the “Rate due to ADH” value [10] was 3.6 and the “kinetics of elimination in rats (order)” value [14] was “first order kinetics”. For the same compound, the “V rel (Vmax relative to ethanol as substrate)” value [1, 12] was 0.69 ± 0.03, the “in vitro v rel” value [1, 8] was 0.35 and the Vrel/K ([1]; pH 7.3, 37 °C, 0.5 mM NAD+) was 0.14.

In the case of `Cc1cn[nH]c1` [4-methylpyrazole], the “effective, in vivo, competitive Ki” value ([4]; in the rat) is given as 1.4 µmol/kg, the “inhibition of elimination of ethanol” value ([4]; inhibitor dose 1 mmole/kg, ethanol 20 mmole/kg) is given as 87% and the Ki [5] is given as 5.7 mM. For the same compound, the Ki [6] was 0.00011 mM.

With `OCc1ccccc1` [Benzyl alcohol, benzyl alcohol] the Ki [1] was 27 mM, the “V rel (Vmax relative to ethanol as substrate)” value [1, 12] was 0.47 ± 0.03 and the Vrel/K ([1]; pH 7.3, 37 °C, 0.5 mM NAD+) was 13.

With `OC1CCCCC1` [Cyclohexanol, cyclohexanol] the “%ADH (estimated percentage of elimination due to ADH)” value [9] was 74%, the “Rate due to ADH” value (male, rat, in vivo) was 3.2 and the “in vivo rate of elimination” value (male, rat, in vivo) was 4.3 ± 1.5 mmol/kg/h. The “10^4 k1 (first order, alcohol to ketone)” value (male, rat, in vivo, ip) was 229 ± 70 min^−1, the “10^4 k2 (first order, elimination of ketone)” value (male, rat, in vivo, ip) was 50 ± 6 min^−1 and the r (male, rat, in vivo, ip) was 0.75 ± 0.21 mL/g. For the same compound, the “in vitro v rel” value [1, 8] was 0.90.

In the case of `O=C1CCCCC1` [Cyclohexanone], the “10^4 k1 (first order, alcohol to ketone)” value (male, rat, in vivo, ip) is reported as 176 ± 13 min^−1, the “10^4 k2 (first order, elimination of ketone)” value (male, rat, in vivo, ip) is reported as 67 ± 3 min^−1 and the r (male, rat, in vivo, ip) is reported as 0.53 mL/g.

With `OC1CCCC1` [Cyclopentanol, cyclopentanol] the “%ADH (estimated percentage of elimination due to ADH)” value [9] was 64%, the “Rate due to ADH” value [10] was 3.0 and the “kinetics of elimination in rats (order)” value [14] was “first order kinetics”. For the same compound, the “V rel (Vmax relative to ethanol as substrate)” value [1, 12] was 0.72 ± 0.04, the “in vitro v rel” value [1, 8] was 0.68 and the Vrel/K ([1]; pH 7.3, 37 °C, 0.5 mM NAD+) was 2.2.

For `CC(C)C(N)=O` [isobutyramide], the “in vivo Ki (uncompetitive)” value [4] is listed as 1 mmol/kg.

With `c1cn[nH]c1` [pyrazole, reference compound] the “Inhibition of the ADH reactions” value ([1]; 10 mM pyrazole) was “almost totally inhibited”.

In the case of `O=C1CCCCO1` [δ-valerolactone], the “concentration formed in dismutation reaction” value [2] is reported as ~ 2 mM.
